Laboratory results as given in patent US20250064773A1, “TARGETING ERO1 ALPHA WITH AURONE DERIVATIVES” (West Virginia University Board of Governors on behalf of …, priority 2021, published 2025).

System: MM1.s
Assay: MTT viability assay, MM1.s
Type: cell-based
Conditions: Homo sapiens, Multiple Myeloma, read-out: IC50 Avg ± s.d. (n = 3), MM1.s
From the text: Cell Lines: PC-9 cell line used was obtained from Sigma Aldrich and grown in RPMI 1640 medium with 10% fetal bovine serum and 1% penicillin/streptomycin. HCC4006, U266, MM1.s, and Beas-2B cell lines were obtained from ATCC and cultured in either RPMI 1640 or DMEM with 10% fetal bovine serum and 1% penicillin/streptomycin. All cell lines were also checked for mycoplasma every six months and subjected to short tandem repeat (STR) analysis for cell line validation. CRISPR Cas9: CRISPR Guide RNA 2 targeting ERO1α and CRISPR Guide RNA 4 were purchased from Genscript in the pLentiCRISPR V2 plasmid containing puromycin/ampicillin selection marker. Lentivirus was made from HEK 293T cells by co-transfection with GuideRNA of interest, pVSVG, and pPAX2 plasmids. […] Plate was then read on the BioTek Cytation 5 at 530/590 nm. […] Plate was then read at 570 nm. Treated wells were all compared to DMSO control wells to calculate percent growth inhibition and the IC50 was calculated using GraphPad (log(inhibitor) vs growth inhibition). […] Images were then quantified using ImageJ. […] Cells were aliquoted at 1 million cells per PCR tube in PBS and heated in Bio-Rad T100 thermal cycler at indicated temperatures (RT, 46° C., 48° C., 50° C., 52° C., 54° C., 56°, 58° C., and 60° C.) for 3 minutes and aggregation temperature was determined by western blot analysis. […]

Structure (SMILES): CN(C)c1ccc(/C=C2\Oc3cc(O)ccc3C2=O)cc1 [Compound T151742]
- IC50: 7.45 ± 1.12 µM
